Drawing on publication PMC3237616 (Molecular Biology of the Cell, 2011), this text covers Km for 1 substance.

For this assay, the system named is PIK (PI4K; phosphatidylinositol 4-kinase). Kind of assay: radiometric PtdInsP formation from […]-ATP, Lineweaver-Burk. The format is biochemical, Mus musculus. The settings on record: co-substrate 32P-ATP; 25 °C; 10 min; cell homogenate; without added c-Fos.

With PtdIns, the Km was 254 µM.

The term Km denotes the concentration of substrate that gives half-maximal velocity.
